Source: PMC4770715, “LIM kinase inhibitors disrupt mitotic microtubule organization and impair tumor cell proliferation” (Oncotarget, 2015)

Columns and labels:
Assay in all cases: biochemical
Set-up in all cases: KINOMEscan active-site competition binding, percent of control (100 = no competition)
Conditions in all cases: competition binding, percent control
[1] = target: T1, ABL1(F317L)-nonphosphorylated (Homo sapiens, UniProt P00519, F317L)
T1 construct: nonphosphorylated

[2] = target: T2, ABL1(T315I)-phosphorylated (Homo sapiens, UniProt P00519, T315I)
T2 construct: phosphorylated

AMPK-alpha1 = target: T3, AMPK-alpha1 (Homo sapiens, UniProt Q13131)
T3 construct: gene PRKAA1

CAMK2A = CAMK2A (Homo sapiens, UniProt Q9UQM7)
CDK7 = CDK7 (Homo sapiens, UniProt P50613)
CSNK1G3 = CSNK1G3 (Homo sapiens, UniProt Q9Y6M4)
EGFR(L858R) = EGFR(L858R) (Homo sapiens, UniProt P00533, L858R)
EGFR(L861Q) = EGFR(L861Q) (Homo sapiens, UniProt P00533, L861Q)
FGR = FGR (Homo sapiens, UniProt P09769)
FLT3(D835H) = FLT3(D835H) (Homo sapiens, UniProt P36888, D835H)
MEK5 = target: T4, MEK5 (Homo sapiens, UniProt Q13163)
T4 construct: gene MAP2K5

MST1R = MST1R (Homo sapiens, UniProt Q04912)
NDR2 = target: T5, NDR2 (Homo sapiens, UniProt Q9Y2H1)
T5 construct: gene STK38L

NEK3 = NEK3 (Homo sapiens, UniProt P51956)
NIM1 = target: T6, NIM1 (Homo sapiens, UniProt Q8IY84)
T6 construct: gene NIM1K

PDGFRA = PDGFRA (Homo sapiens, UniProt P16234)
PFPK5(P.falciparum) = target: T7, PFPK5(P.falciparum) (Plasmodium falciparum, UniProt P61075)
T7 construct: gene CRK2

PIK3CA(M1043I) = PIK3CA(M1043I) (Homo sapiens, UniProt P42336, M1043I)
PIK3CB = PIK3CB (Homo sapiens, UniProt P42338)
RET(V804L) = RET(V804L) (Homo sapiens, UniProt P07949, V804L)
[3] = target: T8, TYK2(JH1domain-catalytic) (Homo sapiens, UniProt P29597)
T8 construct: JH1domain-catalytic

ZAK = target: T9, ZAK (Homo sapiens, UniProt Q9NYL2)
T9 construct: gene MAP3K20

CDK7, sequence (P50613 whole entry): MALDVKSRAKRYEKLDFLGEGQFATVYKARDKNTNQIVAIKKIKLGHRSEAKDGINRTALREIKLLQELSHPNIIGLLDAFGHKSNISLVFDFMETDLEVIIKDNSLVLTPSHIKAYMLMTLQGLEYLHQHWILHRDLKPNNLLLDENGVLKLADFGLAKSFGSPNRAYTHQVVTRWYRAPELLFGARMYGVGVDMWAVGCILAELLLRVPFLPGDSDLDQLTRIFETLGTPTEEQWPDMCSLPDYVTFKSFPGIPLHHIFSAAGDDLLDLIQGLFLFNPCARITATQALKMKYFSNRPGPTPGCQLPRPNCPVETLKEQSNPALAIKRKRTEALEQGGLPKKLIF
MST1R, sequence (Q04912 whole entry): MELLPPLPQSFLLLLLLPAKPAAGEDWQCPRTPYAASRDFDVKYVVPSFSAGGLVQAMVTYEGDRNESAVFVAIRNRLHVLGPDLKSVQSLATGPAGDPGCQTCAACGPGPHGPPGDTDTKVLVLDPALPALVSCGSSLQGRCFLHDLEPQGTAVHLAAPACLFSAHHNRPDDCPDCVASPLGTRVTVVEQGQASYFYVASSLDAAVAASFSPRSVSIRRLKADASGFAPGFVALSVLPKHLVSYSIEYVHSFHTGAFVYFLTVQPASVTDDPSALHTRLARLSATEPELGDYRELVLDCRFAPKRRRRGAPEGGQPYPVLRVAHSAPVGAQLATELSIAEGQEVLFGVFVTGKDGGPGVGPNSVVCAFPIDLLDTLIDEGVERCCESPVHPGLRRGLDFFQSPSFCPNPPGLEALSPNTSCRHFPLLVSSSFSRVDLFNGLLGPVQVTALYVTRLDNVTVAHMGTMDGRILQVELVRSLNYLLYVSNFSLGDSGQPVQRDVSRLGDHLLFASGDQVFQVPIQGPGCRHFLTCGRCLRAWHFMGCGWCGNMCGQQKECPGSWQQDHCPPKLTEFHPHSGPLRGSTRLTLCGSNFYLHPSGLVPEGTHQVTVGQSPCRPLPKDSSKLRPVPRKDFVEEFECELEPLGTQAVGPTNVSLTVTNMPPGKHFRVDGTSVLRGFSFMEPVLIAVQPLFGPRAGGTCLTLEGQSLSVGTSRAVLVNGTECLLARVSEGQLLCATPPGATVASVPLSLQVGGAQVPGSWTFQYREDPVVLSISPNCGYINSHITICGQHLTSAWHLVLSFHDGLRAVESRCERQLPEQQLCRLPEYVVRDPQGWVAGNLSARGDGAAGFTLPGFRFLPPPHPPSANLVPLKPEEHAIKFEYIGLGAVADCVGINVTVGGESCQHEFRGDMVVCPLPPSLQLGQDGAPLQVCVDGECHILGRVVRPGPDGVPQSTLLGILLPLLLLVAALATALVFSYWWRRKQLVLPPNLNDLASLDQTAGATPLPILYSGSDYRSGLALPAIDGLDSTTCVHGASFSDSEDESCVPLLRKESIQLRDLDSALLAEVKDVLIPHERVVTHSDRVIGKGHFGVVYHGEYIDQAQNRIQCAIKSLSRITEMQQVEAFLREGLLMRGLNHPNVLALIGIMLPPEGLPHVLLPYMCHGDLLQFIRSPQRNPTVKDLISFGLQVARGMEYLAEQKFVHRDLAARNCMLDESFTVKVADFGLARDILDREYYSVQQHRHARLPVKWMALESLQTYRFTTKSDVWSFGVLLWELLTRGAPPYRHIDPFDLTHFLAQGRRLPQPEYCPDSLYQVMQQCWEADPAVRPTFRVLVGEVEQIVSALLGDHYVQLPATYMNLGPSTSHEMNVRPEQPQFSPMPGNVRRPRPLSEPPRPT
T8 sequence (P29597 whole entry): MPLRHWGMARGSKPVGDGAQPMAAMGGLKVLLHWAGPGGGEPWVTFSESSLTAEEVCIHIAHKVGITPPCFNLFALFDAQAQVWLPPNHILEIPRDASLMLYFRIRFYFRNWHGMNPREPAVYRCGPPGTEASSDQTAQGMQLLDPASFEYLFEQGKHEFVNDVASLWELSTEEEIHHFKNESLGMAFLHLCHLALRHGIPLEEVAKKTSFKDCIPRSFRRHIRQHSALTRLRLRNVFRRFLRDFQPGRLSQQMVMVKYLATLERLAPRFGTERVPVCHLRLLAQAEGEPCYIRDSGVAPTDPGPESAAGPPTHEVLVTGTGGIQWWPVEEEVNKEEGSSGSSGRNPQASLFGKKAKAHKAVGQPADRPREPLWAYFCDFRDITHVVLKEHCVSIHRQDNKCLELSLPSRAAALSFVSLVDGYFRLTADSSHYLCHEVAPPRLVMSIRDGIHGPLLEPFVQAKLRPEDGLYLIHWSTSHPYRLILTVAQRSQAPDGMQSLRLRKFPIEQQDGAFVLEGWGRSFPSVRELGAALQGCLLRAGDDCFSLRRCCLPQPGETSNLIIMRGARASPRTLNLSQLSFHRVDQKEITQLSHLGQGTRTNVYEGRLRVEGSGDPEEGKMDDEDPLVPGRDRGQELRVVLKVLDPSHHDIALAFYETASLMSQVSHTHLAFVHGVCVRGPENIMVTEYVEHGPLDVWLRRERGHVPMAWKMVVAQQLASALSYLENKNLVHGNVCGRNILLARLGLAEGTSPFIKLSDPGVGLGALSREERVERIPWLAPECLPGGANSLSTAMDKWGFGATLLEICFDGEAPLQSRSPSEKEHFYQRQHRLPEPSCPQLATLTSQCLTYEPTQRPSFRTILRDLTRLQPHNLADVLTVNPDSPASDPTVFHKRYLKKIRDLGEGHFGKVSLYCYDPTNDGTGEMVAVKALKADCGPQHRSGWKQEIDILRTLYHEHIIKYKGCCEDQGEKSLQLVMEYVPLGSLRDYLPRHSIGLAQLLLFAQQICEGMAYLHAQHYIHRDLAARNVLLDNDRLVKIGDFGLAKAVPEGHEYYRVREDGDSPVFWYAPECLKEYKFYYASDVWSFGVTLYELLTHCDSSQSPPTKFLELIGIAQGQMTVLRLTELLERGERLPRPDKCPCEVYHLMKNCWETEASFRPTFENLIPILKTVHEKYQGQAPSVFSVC
PIK3CA(M1043I), sequence (P42336 whole entry M1043I): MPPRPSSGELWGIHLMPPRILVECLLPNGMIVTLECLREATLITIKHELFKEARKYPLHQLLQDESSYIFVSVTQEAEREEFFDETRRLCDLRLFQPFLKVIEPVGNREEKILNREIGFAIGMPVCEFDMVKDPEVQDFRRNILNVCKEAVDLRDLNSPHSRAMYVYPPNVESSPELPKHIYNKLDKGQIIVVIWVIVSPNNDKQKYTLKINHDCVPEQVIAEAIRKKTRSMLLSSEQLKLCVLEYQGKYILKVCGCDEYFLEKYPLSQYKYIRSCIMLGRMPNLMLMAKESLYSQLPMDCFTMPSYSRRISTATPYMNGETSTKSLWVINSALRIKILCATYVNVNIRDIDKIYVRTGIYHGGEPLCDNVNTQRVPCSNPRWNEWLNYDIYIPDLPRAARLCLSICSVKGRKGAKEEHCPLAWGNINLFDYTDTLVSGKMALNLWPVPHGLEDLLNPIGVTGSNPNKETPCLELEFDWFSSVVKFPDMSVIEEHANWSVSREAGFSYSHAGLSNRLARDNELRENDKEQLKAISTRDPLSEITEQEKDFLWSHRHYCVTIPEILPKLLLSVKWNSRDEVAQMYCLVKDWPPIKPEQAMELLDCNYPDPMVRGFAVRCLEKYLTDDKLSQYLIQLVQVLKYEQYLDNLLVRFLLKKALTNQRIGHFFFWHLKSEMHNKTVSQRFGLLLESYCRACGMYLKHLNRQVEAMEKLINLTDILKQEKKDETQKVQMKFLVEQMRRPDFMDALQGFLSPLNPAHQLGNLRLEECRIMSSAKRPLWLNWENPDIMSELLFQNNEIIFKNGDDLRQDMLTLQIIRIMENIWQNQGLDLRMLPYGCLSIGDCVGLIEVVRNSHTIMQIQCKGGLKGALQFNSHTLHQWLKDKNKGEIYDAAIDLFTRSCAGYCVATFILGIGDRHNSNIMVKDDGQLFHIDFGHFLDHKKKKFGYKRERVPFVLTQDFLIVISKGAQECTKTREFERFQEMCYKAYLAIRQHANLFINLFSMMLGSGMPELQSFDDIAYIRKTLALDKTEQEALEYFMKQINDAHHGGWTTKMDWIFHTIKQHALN
RET(V804L), sequence (P07949 whole entry V804L): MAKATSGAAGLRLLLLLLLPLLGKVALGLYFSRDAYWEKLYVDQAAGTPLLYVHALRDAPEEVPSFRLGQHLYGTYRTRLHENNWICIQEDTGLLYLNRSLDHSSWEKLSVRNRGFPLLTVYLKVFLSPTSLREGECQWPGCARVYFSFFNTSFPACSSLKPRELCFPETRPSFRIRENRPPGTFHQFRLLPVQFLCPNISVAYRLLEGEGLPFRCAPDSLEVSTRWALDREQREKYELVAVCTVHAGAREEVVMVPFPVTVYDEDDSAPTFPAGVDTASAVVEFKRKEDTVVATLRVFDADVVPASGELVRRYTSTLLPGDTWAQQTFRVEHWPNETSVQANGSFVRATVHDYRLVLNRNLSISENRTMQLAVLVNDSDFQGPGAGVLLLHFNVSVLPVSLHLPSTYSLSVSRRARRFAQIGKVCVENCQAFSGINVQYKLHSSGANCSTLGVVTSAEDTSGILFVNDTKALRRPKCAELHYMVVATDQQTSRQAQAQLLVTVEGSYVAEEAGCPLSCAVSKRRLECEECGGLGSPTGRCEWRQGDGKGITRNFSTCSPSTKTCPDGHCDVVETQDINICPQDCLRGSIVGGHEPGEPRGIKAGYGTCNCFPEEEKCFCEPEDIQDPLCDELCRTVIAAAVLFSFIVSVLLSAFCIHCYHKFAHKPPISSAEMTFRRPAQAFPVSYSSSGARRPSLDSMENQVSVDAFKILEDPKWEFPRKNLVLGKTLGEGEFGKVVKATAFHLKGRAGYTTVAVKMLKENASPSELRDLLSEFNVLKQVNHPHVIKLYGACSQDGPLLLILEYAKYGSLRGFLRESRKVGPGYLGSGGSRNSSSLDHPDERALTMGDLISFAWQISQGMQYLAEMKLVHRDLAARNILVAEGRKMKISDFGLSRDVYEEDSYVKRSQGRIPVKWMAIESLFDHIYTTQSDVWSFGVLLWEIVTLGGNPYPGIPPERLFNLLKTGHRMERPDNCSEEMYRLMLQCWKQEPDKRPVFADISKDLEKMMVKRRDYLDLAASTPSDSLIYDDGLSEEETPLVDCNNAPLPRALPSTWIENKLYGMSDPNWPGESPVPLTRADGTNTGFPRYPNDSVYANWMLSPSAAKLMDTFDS

Row | SMILES | remaining binding at 10 µM [1] | remaining binding at 10 µM [2] | remaining binding at 10 µM (AMPK-alpha1) | remaining binding at 10 µM (CAMK2A) | remaining binding at 10 µM (CDK7) | remaining binding at 10 µM (CSNK1G3) | remaining binding at 10 µM (EGFR(L858R)) | remaining binding at 10 µM (EGFR(L861Q)) | remaining binding at 10 µM (FGR) | remaining binding at 10 µM (FLT3(D835H)) | remaining binding at 10 µM (MEK5) | remaining binding at 10 µM (MST1R) | remaining binding at 10 µM (NDR2) | remaining binding at 10 µM (NEK3) | remaining binding at 10 µM (NIM1) | remaining binding at 10 µM (PDGFRA) | remaining binding at 10 µM (PFPK5(P.falciparum)) | remaining binding at 10 µM (PIK3CA(M1043I)) | remaining binding at 10 µM (PIK3CB) | remaining binding at 10 µM (RET(V804L)) | other results
1 | COc1ccc(-c2cnccc2-c2cnc(NC(=O)C(C)C)s2)c(C(F)(F)F)c1 [CRT0105446, N-{5-[3-(4-Methoxy-2-trifluoromethyl-phenyl)-pyridin-4-yl]-hiazol-2-yl}-isobutyramide] | 92% | 99% | 1.1% | 82% | 5.8% | 67% | 76% | 100% | 93% | 15% | 100% | 100% | 82% | 100% | 100% | 66% | 100% | 100% | 95% | 99% | remaining binding at 10 µM [3]: 72%; remaining binding at 10 µM (ZAK): 100%
2 | Cc1ccc(-c2cnccc2-c2cnc(Nc3ccc(O)cc3)s2)c(Cl)c1 [CRT0105950, 4-{5-[3-(2-Chloro-4-methyl-phenyl)-pyridin-4-yl]-thiazol-2-ylamino}-phenol] | 86% | 79% | 2.1% | 33% | 32% | 43% | 69% | 65% | 32% | 0.95% | 60% | 92% | 80% | 88% | 100% | 48% | 84% | 100% | 80% | 5.8% | remaining binding at 10 µM [3]: 25%; remaining binding at 10 µM (ZAK): 9%
